Data on nine compounds can be found in patent US20260274891A1, “¿ OPIOID RECEPTOR AGONIST AND USE THEREOF” (CHENGDU AODA BIOTECHNOLOGY CO., LTD., priority 2023, published 2026).

pEC50: −log10 of the molar value. Read-outs that look alike come from different tables or passages of the source.

The test has as its target T1, human κ opioid receptor (OPRK1) (Homo sapiens, UniProt P41145).
T1 construct: expressed in transfected cells; host or cells: CHO-K1
The test can be described thus: Determination of activities of κ receptor agonists: inhibition of forskolin-stimulated cAMP release (HTRF) in stably transfected CHO-K1 cells. Format: cell-based. The note with it: for Relative Activity %: relative to Difelikefalin = 100.0. In outline:
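Stably transfected CHO-K1 cells stimulated with graded agonist concentrations in presence of forskolin (concentration not specified). Inhibition of forskolin-stimulated cAMP read by HTRF as relative light units; EC50 calculated from dose-response.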

T1 sequence (P41145 whole entry): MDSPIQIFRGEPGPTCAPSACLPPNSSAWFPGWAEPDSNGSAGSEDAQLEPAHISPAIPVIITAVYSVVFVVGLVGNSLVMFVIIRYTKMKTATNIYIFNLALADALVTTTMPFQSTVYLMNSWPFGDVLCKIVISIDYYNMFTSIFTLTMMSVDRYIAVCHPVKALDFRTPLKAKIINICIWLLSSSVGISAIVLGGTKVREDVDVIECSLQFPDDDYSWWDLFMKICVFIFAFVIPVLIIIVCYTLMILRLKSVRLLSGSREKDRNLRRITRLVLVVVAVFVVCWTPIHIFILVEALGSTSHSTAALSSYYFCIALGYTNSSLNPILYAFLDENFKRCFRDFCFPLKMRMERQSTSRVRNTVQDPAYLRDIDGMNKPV

As a reminder, the pEC50 is −log10 of the EC50, conventionally taken in molar units. Regarding `Cc1ccc(C[C@@H](NC(=O)[C@H](N)Cc2ccccc2)C(=O)N[C@H](CC(C)C)C(=O)N[C@H](CCCCN)C(=O)N2CCC(N)(C(=O)N[C@@H](CCCCN)C(N)=O)CC2)cc1` [Compound 127, D-Phe-D-Phe(4-Me)-D-Leu-D-Lys-4-aminopiperidine-4-carboxamide-Lys-NH2], the negative logarithm of the EC50 (pEC50) was 9.80 and the “Relative Activity %” value came out at 385.8%.

As for `Cc1ccc(C[C@@H](NC(=O)[C@H](N)Cc2ccccc2)C(=O)N[C@H](CC(C)C)C(=O)N[C@H](CCCCN)C(=O)N2CCC(N)(C(=O)N[C@@H](CCCCN)C(=O)O)CC2)cc1` [Compound 128, D-Phe-D-Phe(4-Me)-D-Leu-D-Lys-4-aminopiperidine-4-carboxamide-Lys-OH], the negative logarithm of the EC50 (pEC50) is 9.80 and the “Relative Activity %” value was 380.2%.

Turning to `CCc1ccc(C[C@@H](NC(=O)[C@H](N)Cc2ccccc2)C(=O)N[C@H](CC(C)C)C(=O)N[C@H](CCCCN)C(=O)N2CCC(N)(C(=O)N[C@@H](CCCCN)C(N)=O)CC2)cc1` [Compound 131, D-Phe-D-Phe(4-Et)-D-Leu-D-Lys-4-aminopiperidine-4-carboxamide-Lys-NH2], the pEC50 was 9.87 and the “Relative Activity %” value was 454.5%.

Consider `CCc1ccc(C[C@@H](NC(=O)[C@H](N)Cc2ccccc2)C(=O)N[C@H](CC(C)C)C(=O)N[C@H](CCCCN)C(=O)N2CCC(N)(C(=O)N[C@@H](CCCCN)C(=O)O)CC2)cc1` [Compound 132, D-Phe-D-Phe(4-Et)-D-Leu-D-Lys-4-aminopiperidine-4-carboxamide-Lys-OH], for which the pEC50 is 9.88 and the “Relative Activity %” value was found to be 465.6%.

Consider `CCc1ccc(C[C@@H](NC(=O)[C@H](N)Cc2ccccc2)C(=O)N[C@H](CC(C)C)C(=O)N[C@H](CCCCN)C(=O)N2CCC(N)(C(=O)N[C@H](CCCCN)C(N)=O)CC2)cc1` [Compound 133, D-Phe-D-Phe(4-Et)-D-Leu-D-Lys-4-aminopiperidine-4-carboxamide-D-Lys-NH2], for which the negative logarithm of the EC50 (pEC50) is 9.88 and the “Relative Activity %” value was 461.7%.

Consider `CCc1ccc(C[C@@H](NC(=O)[C@H](N)Cc2ccccc2)C(=O)N[C@H](CC(C)C)C(=O)N[C@H](CCCCN)C(=O)N2CCC(N)(C(=O)N[C@H](CCCCN)C(=O)O)CC2)cc1` [Compound 134, D-Phe-D-Phe(4-Et)-D-Leu-D-Lys-4-aminopiperidine-4-carboxamide-D-Lys-OH], for which the negative-log EC50 (pEC50) is 9.88 and the “Relative Activity %” value was 457.6%.

For the compound `CC(C)C[C@@H](NC(=O)[C@@H](Cc1ccc(C(C)C)cc1)NC(=O)[C@H](N)Cc1ccccc1)C(=O)N[C@H](CCCCN)C(=O)N1CCC(N)(C(=O)N[C@H](CCCCN)C(N)=O)CC1` [Compound 137, D-Phe-D-Phe(4-Ipr)-D-Leu-D-Lys-4-aminopiperidine-4-carboxamide-D-Lys-NH2], the pEC50 was 9.84 and the “Relative Activity %” value was 423.1%.

As for `CC(C)C[C@@H](NC(=O)[C@@H](Cc1ccc(N)cc1)NC(=O)[C@H](N)Cc1ccccc1)C(=O)N[C@H](CCCCN)C(=O)N1CCC(N)(C(=O)N[C@H](CCCCN)C(N)=O)CC1` [Compound 141, D-Phe-D-Phe(4-NH2)-D-Leu-D-Lys-4-aminopiperidine-4-carboxamide-D-Lys-NH2], the pEC50 was 9.95 and the “Relative Activity %” value is listed as 543.1%.

For `CC(C)C[C@@H](NC(=O)[C@@H](Cc1ccccc1)NC(=O)[C@H](N)Cc1ccccc1)C(=O)N[C@H](CCCCN)C(=O)N1CCC(N)(C(=O)O)CC1` [Difelikefalin, D-Phe-D-Phe-D-Leu-D-Lys-4-caminopiperidine-4-arboxylicacid-OH, reference compound], under “CHO-K1 cell line stably expressing opioid receptors, forskolin-stimulated cAMP, HTRF, read-out: EC50”, the negative-log EC50 (pEC50) is 9.22.
